These results are taken from DBAASP.

Values after ≈ are worked out from the molar mass of the structure shown. Values joined by “and” are separate entries in the source; they are usually repeats but may differ in a detail not shown here. Equal entries are not always repeated. A value given as a limit tells only on which side of the number the result lay.

What all share (experiment): ≥ marks a high value that may be exact or a test limit, other limits are often not marked, values filed in µg/mL are converted to µM
The subject of assay [1] is Escherichia coli ML-35p.
Assay [2] deals with Salmonella enterica subsp. enterica serovar Enteritidis.
Assay [3] concerns Saccharomyces cerevisiae.
Assay [4] concerns Klebsiella pneumoniae ATCC 13883.
Assay [5] has as its system Candida albicans ATCC 90028.
In assay [6] the test system is Candida parapsilosis ATCC 22019.
Assay [7] deals with Streptococcus pyogenes ATCC 19615.
The test system of assay [8] is Staphylococcus aureus ATCC 25923.
The subject of assay [9] is Listeria ivanovii.
Assay [10] concerns Acinetobacter baumannii ATCC 19606.
The test system of assay [11] is Escherichia coli ATCC 25922.
The subject of assay [12] is Staphylococcus aureus ST1065.
Assay [13] concerns Enterococcus faecalis ATCC 29212.
Assay [14] concerns Pseudomonas aeruginosa ATCC 27853.
In assay [15] the test system is Listeria monocytogenes CMCC 54002.
Assay [16] concerns Shigella dysenteriae CMCC 51302.
Assay [17] has as its system Salmonella typhimurium CMCC 50013.
Assay [18] concerns Staphylococcus aureus ATCC 29213.
The subject of assay [19] is Streptococcus mutans.
In assay [20] the test system is Staphylococcus aureus.
In assay [21] the test system is Escherichia coli W160-37.
The test system of assay [22] is Candida albicans ATCC 37092.
Assay [23] deals with Pseudomonas aeruginosa ATCC 9027.
Assay [24] has as its system Candida albicans.
For assay [25], the system named is Staphylococcus aureus USA 100.
The test system of assay [26] is Staphylococcus epidermidis.
Assay [27] concerns Staphylococcus aureus USA 300.
Assay [28] deals with Salmonella enterica serovar Typhimurium.
The subject of assay [29] is Escherichia coli UB1005.
Assay [30] has as its system Pseudomonas aeruginosa H103.
In assay [31] the test system is Candida albicans ATCC 64550.
Assay [32] deals with Escherichia coli.

As to `CC[C@H](C)[C@H](NC(=O)CNC(=O)[C@H](CCCCN)NC(=O)[C@H](C)NC(=O)[C@@H](N)Cc1ccccc1)C(=O)N[C@@H](C)C(=O)NCC(=O)N[C@@H](CCSC)C(=O)N[C@@H](C)C(=O)NCC(=O)N[C@@H](CCCCN)C(=O)N[C@@H](CC(C)C)C(=O)N[C@@H](Cc1ccccc1)C(N)=O` [FAKGIAGMAGKLF], the MIC in [1], in [2], in assay [3], in assay [4], in assay [5] and in [6] was at least 200 µM each time. Further, the MIC (commonly the lowest concentration found to suppress growth) in assay [7] is at least 100 µM; in assay [8], over 200 µM; in [9] it was at least 200 µM; in [10], over 200 µM; in assay [11], over 200 µM; in assay [12] it was at least 200 µM. Moreover, the MIC in assay [13] and in [14] was over 200 µM in each case.
For the molecule `CC(C)C[C@H](NC(=O)CN)C(=O)N[C@@H](CCCN=C(N)N)C(=O)N[C@@H](CCCN=C(N)N)C(=O)N[C@@H](C)C(=O)N[C@@H](CC(C)C)C(=O)N[C@@H](CC(C)C)C(=O)N[C@@H](CCCN=C(N)N)C(=O)N[C@@H](CC(C)C)C(=O)N[C@@H](CC(C)C)C(=O)N[C@@H](CCCN=C(N)N)C(=O)N[C@@H](CO)C(=O)N[C@@H](CC(C)C)C(=O)N[C@@H](CCCN=C(N)N)C(=O)N[C@@H](CCCN=C(N)N)C(=O)N[C@@H](CC(C)C)C(=O)N[C@@H](CC(C)C)C(=O)N[C@@H](CC(C)C)C(=O)N[C@@H](CCCN=C(N)N)C(=O)N[C@@H](C)C(=O)O` [GLRRALLRLLRSLRRLLLRA], the minimal inhibitory concentration (MIC) in [15] stood at 16 µM (≈ 38.7 µg/mL); in assay [16] it was 8 µM (≈ 19.3 µg/mL); in assay [11] it was 8 µM (≈ 19.3 µg/mL); in assay [17] it was 4 µM (≈ 9.66 µg/mL); in assay [18], 32 µM (≈ 77.3 µg/mL); in [19], 8 µM (≈ 19.3 µg/mL).
Regarding `CC[C@H](C)[C@H](N)C(=O)N[C@@H](CC(C)C)C(=O)N1CCC[C@H]1C(=O)N[C@@H](CC(C)C)C(=O)N[C@@H](CCCCN)C(=O)N[C@@H](CC(C)C)C(=O)N1CCC[C@H]1C(=O)N[C@@H](CC(C)C)C(=O)N[C@@H](CC(C)C)C(=O)N1CCC[C@H]1C(=O)N[C@@H](Cc1c[nH]c2ccccc12)C(=O)N[C@@H](CCCN=C(N)N)C(=O)N[C@@H](CCCN=C(N)N)C(N)=O` [ILPLKLPLLPWRR], the MIC in assay [20] amounted to 3.1 µM (≈ 5 µg/mL); in [21] it was 12.4 µM (≈ 20 µg/mL).
Turning to `CC[C@H](C)[C@H](NC(=O)CNC(=O)[C@@H](N)CCCCN)C(=O)N[C@H](C(=O)NCC(=O)N[C@@H](CCSC)C(=O)N[C@@H](CC(C)C)C(=O)NCC(=O)N[C@@H](CCCCN)C(=O)N[C@@H](CC(C)C)C(=O)N[C@@H](Cc1ccccc1)C(N)=O)C(C)C` [KGIVGMLGKLF], the MIC in assay [1] was 25 µM (≈ 29 µg/mL); in assay [2], at least 100 µM; in assay [3], 12 µM (≈ 13.9 µg/mL); in assay [4] it was at least 100 µM; in assay [5], 12 µM (≈ 13.9 µg/mL); in [6] it was at least 50 µM. Also, the MIC is at least 50 µM in assay [7]; 40 µM (≈ 46.5 µg/mL) in assay [8]; 12 µM (≈ 13.9 µg/mL) in assay [9]; 50 µM (≈ 58.1 µg/mL) in assay [10]; 30 µM (≈ 34.8 µg/mL) in assay [11]; at least 40 µM in assay [12]. Also, the values for the MIC in assay [13] and in assay [14] were over 200 µM and 25 µM (≈ 29 µg/mL), respectively.
`CC[C@H](C)[C@H](NC(=O)[C@H](Cc1c[nH]c2ccccc12)NC(=O)[C@H](CCCCN)NC(=O)[C@H](CCCCN)NC(=O)[C@H](CC(C)C)NC(=O)[C@H](Cc1ccccc1)NC(=O)[C@H](CCCCN)NC(=O)[C@H](CCCCN)NC(=O)[C@H](CC(C)C)NC(=O)[C@H](CC(C)C)NC(=O)[C@H](CCCCN)NC(=O)[C@@H]1CCCN1)C(=O)NCC(=O)O` [PKLLKKFLKKWIG]: the minimum inhibitory concentration (MIC) in assay [20] worked out at 13 µM (≈ 20.8 µg/mL); in assay [21], 24 µM (≈ 38.4 µg/mL).
On to `CC[C@H](C)[C@H](NC(=O)[C@@H]1CCCN1C(=O)[C@H](CCCN=C(N)N)NC(=O)[C@@H]1CCCN1C(=O)CNC(=O)[C@@H]1CCCN1C(=O)[C@H](CCCN=C(N)N)NC(=O)[C@@H]1CCCN1C(=O)[C@H](Cc1ccccc1)NC(=O)[C@@H]1CCCN1C(=O)[C@H](CC(C)C)NC(=O)[C@@H]1CCCN1C(=O)[C@H](CCCN=C(N)N)NC(=O)[C@@H]1CCCN1C(=O)[C@@H](NC(=O)[C@@H]1CCCN1C(=O)[C@H](CCCN=C(N)N)NC(=O)[C@@H]1CCCN1C(=O)CNC(=O)[C@@H]1CCCN1C(=O)[C@H](CCCN=C(N)N)NC(=O)[C@@H]1CCCN1C(=O)[C@H](Cc1ccccc1)NC(=O)[C@@H]1CCCN1C(=O)[C@H](CC(C)C)NC(=O)[C@@H]1CCCN1)[C@@H](C)CC)C(=O)N1CCC[C@H]1C(=O)N[C@@H](CCCN=C(N)N)C(=O)N1CCC[C@H]1C(=O)O` [PLPFPRPGPRPIPRPLPFPRPGPRPIPRP], for which the values for the MIC in [11], in assay [22] and in assay [18] were 5.84 µM (≈ 19.1 µg/mL), 0.5 µM (≈ 1.64 µg/mL) and 30.5 µM (≈ 99.8 µg/mL), respectively.
`CC[C@H](C)[C@H](NC(=O)[C@@H](NC(=O)[C@H](Cc1c[nH]c2ccccc12)NC(=O)[C@@H](NC(=O)[C@@H](N)CCCN=C(N)N)[C@@H](C)CC)C(C)C)C(=O)N[C@@H](CCCN=C(N)N)C(=O)N[C@@H](Cc1c[nH]c2ccccc12)C(=O)N[C@@H](CCCN=C(N)N)C(N)=O` [RIWVIRWR]: the minimum inhibitory concentration (MIC) in assay [5] is at least 100 µM; in [8] it was 3.38 µM (≈ 4 µg/mL); in assay [23] it was 25 µM (≈ 29.6 µg/mL); in assay [24] it was 13.5 µM (≈ 16 µg/mL); in assay [25], 12.5 µM (≈ 14.8 µg/mL); in assay [26] it was 3.38 µM (≈ 4 µg/mL). Besides, the minimum inhibitory concentration (MIC) is 12.5 µM (≈ 14.8 µg/mL) in [27]; 13.5 µM (≈ 16 µg/mL) in [28]; 3.38 µM (≈ 4 µg/mL) in assay [29]; 13.5 µM (≈ 16 µg/mL) in assay [30]; 6.75 µM (≈ 7.99 µg/mL) in assay [13].
Turning to `CC[C@H](C)[C@H](NC(=O)[C@H](CCCN=C(N)N)NC(=O)[C@@H](N)CCCN=C(N)N)C(=O)N[C@@H](CCCN=C(N)N)C(=O)N1CCC[C@H]1C(=O)N[C@@H](CCCN=C(N)N)C(=O)N1CCC[C@H]1C(=O)N1CCC[C@H]1C(=O)N[C@@H](CCCN=C(N)N)C(=O)N[C@@H](CC(C)C)C(=O)N1CCC[C@H]1C(=O)N[C@@H](CCCN=C(N)N)C(=O)N1CCC[C@H]1C(=O)N[C@@H](CCCN=C(N)N)C(=O)N1CCC[C@H]1C(=O)N[C@@H](CCCN=C(N)N)C(=O)N1CCC[C@H]1C(=O)O` [RRIRPRPPRLPRPRPRP], the MIC in [11] amounted to 0.89 µM (≈ 1.93 µg/mL); in assay [22], 1.05 µM (≈ 2.28 µg/mL); in assay [18] it was 0.81 µM (≈ 1.76 µg/mL).
With `NCCCC[C@H](NC(=O)[C@H](CCCCN)NC(=O)[C@H](CCCN=C(N)N)NC(=O)[C@H](CCCN=C(N)N)NC(=O)[C@H](Cc1c[nH]c2ccccc12)NC(=O)[C@H](Cc1c[nH]c2ccccc12)NC(=O)[C@H](CCCN=C(N)N)NC(=O)[C@H](CCCCN)NC(=O)[C@H](Cc1c[nH]c2ccccc12)NC(=O)[C@@H](N)CCCN=C(N)N)C(N)=O` [RWKRWWRRKK], the minimum inhibitory concentration (MIC) in assay [8] was 3 µM and 6 µM; in assay [31], at least 100 µM; in assay [32] it was 3 µM (≈ 4.75 µg/mL).
